Reference: patent US20240269158A1, “THERAPEUTIC AGENTS AND METHODS FOR TREATMENT OF BARTONELLOSIS” (THE ADMINISTRATORS OF THE TULANE EDUCATIONAL FUND, priority 2021, published 2024)
Read-outs that look alike come from different tables or passages of the source.

Key:
[1] = system: B. henselae and B. vinsonii; assay: MIC assay, summary over both species; assay type: cell-based, Bartonella; conditions: BAPGM and Grace's liquid media
Procedure: Optical density (OD) of 7-day old bacterial liquid culture that was grown from an individual colony was measured using a spectrophotometer (Bio-Rad, SmartSpec 300, 170-2501). Bacterial culture was then diluted down to an OD of 0.1 ? 3×10^8 cfu/ml with the respective media.
To determine the MIC of the antibiotics and for the visualization of the bacterial growth, a clear 96-well plate was used. Into each well of a 96-well plate, 50 μl of the 0.1 OD bacterial culture and 50 μl of the liquid media containing antibiotics were added to the wells bringing the total volume to 100 μl of 0.05 OD bacteria (CFU ? 1.5×10^7) in each well. Wells containing only bacteria with solvent used in the dilution of the antibiotics served as a positive control to verify the growth of bacteria. As a negative control, wells containing only media and solvents were used. Each concentration of diluted antibiotic was run in 4 replicates to minimize the error rate. The 96-well plate was covered with the lid and incubated at 37° C. with 5% CO2. OD of the culture was read after 48 hrs and 96 hrs using a hybrid multi-mode microplate reader (Biotek, Synergy H4 hybrid reader) at OD600. The assay was repeated three times.
The determination of susceptibility to therapeutic agents was performed in liquid culture media. Six different therapeutic agents were tested with multiple different concentrations against B. henselae and B. vinsonii. Therapeutic agent concentrations tested were as follows: Ceftriaxone 0.001, 0.01, 0.1, 0.3, 0.5, 1, 2, and 5 μg/ml; doxycycline 0.001, 0.01, 0.1, 0.3, 0.5, 1, 2, 5, and 10 μg/ml, gentamicin: 0.01, 0.1, 0.3, 0.5, 1, 2, 4, 8, and 16 μg/ml, and azithromycin: 0.001, 0.005, 0.02, 0.1, 0.3, 0.5, 1, 2, 5, and 10 μg/ml, were tested based on previous antibiotic susceptibility studies. The following azlocillin dilutions were included: 0.001, 0.005, 0.01, 0.02, 0.5, 1, 2, and 5 μg/ml. The ampicillin dilutions included were as follows: 0.001, 0.005, 0.01, 0.02, 0.5, 1, 2, 4, and 8 μg/ml. Both the species of Bartonella were susceptible to all the antibiotics that were used in BAPGM and Grace's culture liquid mediums. MICs ranged from 0.01 to 0.1 μg/ml for ceftriaxone, doxycycline, and ampicillin, 2.0-4.0 μg/ml for gentamicin, 0.1-0.5 μg/ml for azithromycin, and 0.001-0.01 μg/ml for azlocillin. […] However, both the bacteria were not susceptible towards any of the antibiotics when tested in Schneider's insect medium (Table 1).

[2] = system: intracellular B. henselae in DH82 cells; assay: DH82 cell-based MBC assay (coculture); set-up: species or system Bartonella henselae (canine DH82 cells); conditions: for MBC: B. henselae, DH82 cell-based assay, 96 hours; for effect of individual therapeutic agent on B. henselae growth: DH82 cell-based system, 16 μg/ml, agents used individually
Procedure: DH82 are a canine cell line having a macrophage-like morphology. Cells were initially cultured in T75-Flasks (Corning, 430641U) until confluency was reached and were split at a ratio of 1:4 for every 2-3 days. Cells were then seeded into either 24-well cell culture plates (Corning, 3526) for coculture assay or 8-well chamber slides (Millipore #PEGGS0816) for immunofluorescence assays. A total of 50,000 cells were seeded into each well of a 24-well plate or per chamber of an 8-well chamber slide with EMEM with 15% FBS and incubated for 24-48 hours before infections.
Therapeutic agent stocks were prepared in the following solvents: 10 mg/ml of ceftriaxone (USP), doxycycline (Fisher scientific, D9891-1G), gentamicin (Fisher scientific, 1405-41-0), ampicillin (Fisher scientific, 69-52-3) and azlocillin (Flightpath) in sterile cell culture grade water, whereas 5 mg/ml of azithromycin (Sigma, PZ0007-5MG) was dissolved in sterile cell culture grade DMSO. Antibiotics were then aliquoted and stored at either −80° C. or −20° C. until further use. On the day of assay, these stock concentrations were diluted to 1 mg/ml and 100 μg/ml in the respected bacterial culture media for MIC and cell-free, liquid culture MBC assays. For the DH82 cell-based MBC assay, antibiotics were diluted in EMEM media supplemented with 15% heat inactivated FBS.
Bacteria (B. henselae) that were grown in Grace's insect media, were centrifuged at 7000 rpm for 10 min. The supernatant was removed and washed with 1×PBS for three times. After the washes, pellet was resuspended in EMEM media supplemented with 15% heat inactivated FBS. This bacterial suspension was then added to DH82 cells at a multiplicity of infection (MOI) of 1:50 and incubated for 2 hours. After 2 hours, unbound bacteria were removed by washing the cells with only EMEM media 3 times each 15 min wash. Cells were then incubated with EMEM+15% FBS media at 37° C. with 5% CO2 for 48 hours.
After 48 hrs of incubation, the media was removed from the cells and the therapeutic agents that were diluted in EMEM+15% FBS was added. Each therapeutic agent was diluted at 11 different concentrations (16, 8, 4, 2, 1, 0.5, 0.25, 0.125, 0.062, 0.031, 0.0156 μg/ml), as described above and incubated for 96 hours. […] The bactericidal activity of the therapeutic agents were then evaluated by plating the lysed cells on blood agar plates. Briefly, infected DH82 cells were initially washed for 30 min twice to remove the antibiotics that were added. Later, cells were osmotically lysed by adding 1 ml of sterile ice-cold distilled water and incubated for 5 min on ice. The lysed cells were then plated onto blood agar plates and incubated at 37° C. with 5% CO2 for about 10 days to evaluate the growth of viable B. henselae. This experiment was conducted in duplicates and repeated twice with all 6 antibiotics including 11 different concentrations. The untreated infected cells were used as a positive control and untreated uninfected cells served as a negative control. The CFU counts are presented as average±standard deviation.
To evaluate the bactericidal activity and to determine if these antibiotics could penetrate the eukaryotic […], a new DH82 cell-based coculture system was utilized. […] Uninfected cells stained with primary rabbit B. henselaehyperimmunized polyclonal (primary) and goat anti-rabbit IgG Alexa fluor 594 (secondary) antibodies were used as a negative control. As an isotype control, DH82 cells infected with B. henselae and incubated with primary rabbit IgG were used.

[3] = Bartonella henselae, read-out: MBC

CC[C@H]1OC(=O)[C@H](C)[C@@H](O[C@H]2C[C@@](C)(OC)[C@@H](O)[C@H](C)O2)[C@H](C)[C@@H](O[C@@H]2O[C@H](C)C[C@H](N(C)C)[C@H]2O)[C@](C)(O)C[C@@H](C)CN(C)[C@H](C)[C@@H](O)[C@]1(C)O [Azithromycin, azithromycin]
MICs ranged [1]: 0.1 to 0.5 µg/mL
MBC [2, 3]: > 16 µg/mL
effect of individual therapeutic agent on B. henselae growth [2]: showed reduced bacterial growth but were unable to completely inhibit the growth

CC1(C)S[C@@H]2[C@H](NC(=O)[C@H](NC(=O)N3CCNC3=O)c3ccccc3)C(=O)N2[C@H]1C(=O)O [Azlocillin, azlocillin]
MICs ranged [1]: 0.001 to 0.01 µg/mL
susceptibility / inhibition of growth [1]: most effective in inhibiting the growth of both the species of Bartonella
MBC [2, 3]: > 16 µg/mL
effect of individual therapeutic agent on B. henselae growth [2]: showed reduced bacterial growth but were unable to completely inhibit the growth

CO/N=C(\C(=O)N[C@@H]1C(=O)N2C(C(=O)O)=C(CSc3nc(=O)c(=O)[nH]n3C)CS[C@H]12)c1csc(N)n1 [Ceftriaxone, ceftriaxone]
MBC [2, 3]: > 16 µg/mL

gentamicin
MICs ranged [1]: 2.0 to 4.0 µg/mL
MBC [2]: >16 µg/mL
